Patent US7232912B2, “Indazole compounds, pharmaceutical compositions, and methods for mediating or inhibiting cell proliferation” (Agouron Pharmaceuticals, Inc., priority 2000, dated 2007)
Read-outs that look alike come from different tables or passages of the source.

How the values were obtained:
[1] = test system: HCT 116 cell line; test: Inhibition of Cell Growth (MTT tetrazolium salt assay); assay type: cell-based; details: Homo sapiens
Procedure: Inhibition of Cell Growth: Assessment of Cytotoxicity
Inhibition of cell growth was measured using the tetrazolium salt assay, which is based on the ability of viable cells to reduce 3-(4,5-dimethylthiazol-2-yl)-2,5-[2H]-diphenyltetrazolium bromide (MTT) to formazan (Mossman, Journal of Immunological Methods, vol. 65 (1983), pp. 55–58). The water-insoluble purple formazan product was then detected spectrophotometrically. The HCT 116 cell line was grown in 96-well plates. Cells were plated in the appropriate medium at a volume of 135 μl/well in McCoy's 5A Medium. Plates were incubated for four hours before addition of inhibitor compounds. Different concentrations of inhibitor compounds were added in 0.5% (v/v) dimethylsulfoxide (15 μL/well), and cells were incubated at 37° C. (5% CO2) for four to six days (depending on cell type). At the end of the incubation, MTT was added to a final concentration of 0.2 mg/mL, and cells were incubated for 4 hours more at 37° C. After centrifugation of the plates and removal of medium, the absorbance of the formazan (solubilized in dimethylsulfoxide) was measured at 540 nm. The concentration of inhibitor compound causing 50% inhibition of growth was determined from the linear portion of a semi-log plot of inhibitor concentration versus percentage inhibition. All results were compared to control cells treated only with 0.5% (v/v) dimethylsulfoxide.

[2] = target: T1, CDK2/cyclin A (Homo sapiens, UniProt P24941); test: Inhibition of CDK2/Cyclin A Retinoblastoma Kinase Activity; assay type: biochemical; details: apparent Ki
T1 construct: made in house; host or cells: CDK2: insect cells (baculovirus); cyclin A: E. coli
Procedure: (§1) Cyclin-dependent kinase activity was measured by quantifying the enzyme-catalyzed, time-dependent incorporation of radioactive phosphate from [^32P]ATP or [^33P]ATP into a protein substrate. Unless noted otherwise, assays were performed in 96-well plates in a total volume of 50 μL, in the presence of 10 mM HEPES (N-[2-hydroxyethyl]piperazine-N′-[2-ethanesulfonic acid]) (pH 7.4), 10 mM MgCl2, 25 μM adenosine triphosphate (ATP), 1 mg/mL ovalbumin, 5 μg/mL leupeptin, 1 mM dithiothreitol, 10 mM beta-glycerophosphate, 0.1 mM sodium vanadate, 1 mM sodium fluoride, 2.5 mM ethylene glycol-bis(β-aminoethyl ethKer)-N,N,N′N′-tetraacetic acid (EGTA), 2% (v/v) dimethylsulfoxide, and 0.03–0.4 μCi [^32/33P]ATP per reaction. Reactions were initiated with appropriate enzyme, incubated at 30° C., and terminated after 20 minutes by the addition of ethylenediaminetetraacetic acid (EDTA) to 250 mM. The phosphorylated substrate was then captured on a nitrocellulose or phosphocellulose membrane using a 96-well filtration manifold, and unincorporated radioactivity was removed by repeated washing with 0.85% phosphoric acid. Radioactivity was quantified by exposing the dried membranes to a phosphorimager.
(§2) Apparent Ki values were measured by assaying enzyme activity in the presence of different inhibitor compound concentrations and subtracting the background radioactivity measured in the absence of enzyme. Inhibition data were fit to an equation for competitive inhibition using Kaleidagraph (Synergy Software), or were fit to an equation for competitive tight-binding inhibition using the software KineTic (BioKin, Ltd.).
Inhibition of CDK2/Cyclin A Retinoblastoma Kinase Activity
CDK2 was purified using published methodology (Rosenblatt et al., “Purification and Crystallization of Human Cyclin-dependent Kinase 2,” J. Mol. Biol., vol. 230, 1993, pp. 1317–1319) from insect cells that had been infected with a baculovirus expression vector. […] A complex of CDK2 and proteolyzed cyclin A was prepared and purified by gel filtration. The substrate for this assay was the same Rb substrate fragment used for the CDK4 assays, and the methodology of the CDK2/cyclin A and the CDK4/cyclin D3 assays was essentially the same, except that CDK2 was present at 150 nM or 5 nM. Ki values were measured as described above.

[3] = target: CDK4/cyclin D3 (Homo sapiens, UniProt P11802); test: Inhibition of CDK4/Cyclin D Retinoblastoma Kinase Activity; assay type: biochemical; details: apparent Ki
Chain of CDK4/cyclin D3 (P11802 2-303 limits assumed): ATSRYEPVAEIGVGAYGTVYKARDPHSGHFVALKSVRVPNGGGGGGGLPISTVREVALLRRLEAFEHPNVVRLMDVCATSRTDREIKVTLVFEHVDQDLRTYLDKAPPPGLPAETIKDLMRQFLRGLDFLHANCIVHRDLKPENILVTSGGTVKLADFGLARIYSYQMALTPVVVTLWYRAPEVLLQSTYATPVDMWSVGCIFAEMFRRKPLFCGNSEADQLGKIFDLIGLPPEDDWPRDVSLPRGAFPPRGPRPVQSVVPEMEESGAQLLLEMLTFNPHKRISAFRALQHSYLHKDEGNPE
Chain of CDK4/cyclin D3 (P30281 1-264 limits assumed, further chain): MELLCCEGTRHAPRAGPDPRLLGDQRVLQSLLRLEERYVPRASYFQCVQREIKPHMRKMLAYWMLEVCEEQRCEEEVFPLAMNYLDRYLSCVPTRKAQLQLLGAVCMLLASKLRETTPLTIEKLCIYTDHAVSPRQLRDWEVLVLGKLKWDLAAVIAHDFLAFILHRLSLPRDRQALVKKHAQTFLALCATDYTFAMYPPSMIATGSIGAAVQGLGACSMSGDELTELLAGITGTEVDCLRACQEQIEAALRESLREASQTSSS
Procedure: as §1, §2
Inhibition of CDK4/Cyclin D Retinoblastoma Kinase Activity
A complex of human CDK4 and cyclin D3, or a complex of human CDK4 and genetically truncated (1–264) cyclin D3, was purified using traditional biochemical chromatographic techniques from insect cells that had been co-infected with the corresponding baculovirus expression vectors (see e.g., Meijer and Kim, “Chemical Inhibitors of Cyclin-Dependent Kinases,” Methods in Enzymol,. vol. 283 (1997), pp. 113–128.). The enzyme complex (5 or 50 nM) was assayed with 0.3–0.5 μg of purified recombinant retinoblastoma protein fragment (Rb) as a substrate. The engineered Rb fragment (residues 386–928 of the native retinoblastoma protein; 62.3 kDa) contains the majority of the phosphorylation sites found in the native 106-kDa protein, as well as a tag of six histidine residues for ease of purification. Phosphorylated Rb substrate was captured by microfiltration on a nitrocellulose membrane and quantified using a phosphorimager as described above. For measurement of tight-binding inhibitors, the enzyme complex concentration was lowered to 5 nM, and the assay duration was extended to 60 minutes, during which the time-dependence of product formation was linear.

[4] = target: T2, FGFR1 tyrosine kinase (Homo sapiens, UniProt P11362, C488A/C584S/L457V); test: Inhibition of phosphorylated FGF receptor tyrosine kinase activity; assay type: biochemical; details: read-out: FGF % Inhib. at 1 μM
T2 construct: the cytosolic domain of FGFR1 tyrosine kinase (amino acids 456–766); made in house; host or cells: Sf9 insect cells (baculovirus)
T2 sequence (P11362 456-766 L457V/C488A/C584S): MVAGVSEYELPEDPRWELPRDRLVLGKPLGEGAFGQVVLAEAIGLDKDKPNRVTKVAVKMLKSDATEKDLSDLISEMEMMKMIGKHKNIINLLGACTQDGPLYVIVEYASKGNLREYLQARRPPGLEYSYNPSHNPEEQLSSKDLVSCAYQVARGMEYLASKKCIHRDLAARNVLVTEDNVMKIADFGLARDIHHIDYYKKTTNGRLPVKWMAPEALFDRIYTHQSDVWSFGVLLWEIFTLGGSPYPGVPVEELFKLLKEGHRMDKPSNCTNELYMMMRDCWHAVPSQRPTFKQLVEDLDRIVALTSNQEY
Procedure: Inhibition of Phosphorylated FGF Receptor and LCK Tyrosine Kinase Activity
Cloning, expression and purification of the cytosolic domain of FGFR1 tyrosine kinase (amino acids 456–766) containing three amino acid substitutions (L457V, C488A, and C584S) were conducted as previously described (Mohammadi, M., Schlessinger, J., & Hubbard, S. R. (1996) Cell 86, 577–587). This domain was expressed in Sf9 insect cells using a baculovirus expression vector, and protein was purified using conventional techniques. The LCK tyrosine kinase was expressed in insect cells as an N-terminal deletion starting from amino acid 223 to the end of the protein at amino acid 509. The N-terminus of the protein also had two amino acid substitutions, P223M and C 224D. Kinases were purified using conventional chromatographic methods.
Tyrosine kinase activity was measured using a coupled, continuous spectrophotometric assay, in which production of phosphorylated poly(Glu, Tyr; 4:1) substrate and ADP is coupled to the pyruvate kinase-catalyzed transfer of a phosphate from phosphoenolpyruvate to ADP, with generation of pyruvate and regeneration of ATP. Pyruvate production is in turn coupled to the lactate dehydrogenase-catalyzed reduction of pyruvate to form lactate, with concomitant conversion of NADH to NAD+. Loss of NADH is monitored by measuring absorbance at 340 nm (see e.g., Technikova-Dobrova et al., “Spectrophotometric determination of functional characteristics of protein kinases with coupled enzymatic assay,” FEBS Letters, vol. 292 (1991), pp. 69–72). Enzyme activity was measured in the presence of 200 mM HEPES (pH 7.5), 2 mM phosphoenolpyruvate, 0.3 mM NADH, 20 mM MgCl2, 100 μM ATP, 5 mM DTT, 5.1 or 25 mM poly (Glu,Tyr) 4:1 for P-FGF or P-LCK assays, respectively, and 15 units/mL each of pyruvate kinase and lactate dehydrogenase. Phosphorylated FGF receptor kinase was present at 100 nM and phosphorylated LCK kinase was present at 50 nM. Assays were performed under initial rate conditions at 37° C., and rates were corrected for any background rate measured in the absence of enzyme. Percent inhibition was calculated relative to control enzyme assayed in the presence of 2% (v/v) DMSO.

[5] = HCT 116, MTT, 50% inhibition of growth, read-out: HCT 116 IC50
[6] = HCT 116, MTT, IC90, read-out: HCT 116 IC90
[7] = HCT-116, read-out: HCT 116 IC50 (uM)
[8] = HCT-116, read-out: HCT 116 IC90 (uM)

| SMILES | IC50 [1, 5] | IC90 [1, 6] | Ki [2] | Ki [3] | inhibition at 1 µM [4] | IC50 [1, 7] | IC90 [1, 8] |
| --- | --- | --- | --- | --- | --- | --- | --- |
| Cc1c(-c2ccc3[nH]nc(-c4nc5ccccc5[nH]4)c3c2)cnc2ccccc12 [Example 76, 3-[3-(1H-Benzoimidazol-2-yl)-1H-indazol-5-yl]-4-methyl-quinoline] | 0.5 µM | 0.5 µM | 0.027 µM | 0.15 µM | – | – | – |
| c1ccc2c(-c3ccc4[nH]nc(-c5nc6c([nH]5)CCCC6)c4c3)cncc2c1 [Example 66, 4-[3-(4,5,6,7-Tetrahydro-1H-benzoimidazol-2-yl)-1H-indazol-5-yl]-isoquinoline] | 0.49 µM | 1.6 µM | 0.001 µM | 0.055 µM | – | – | – |
| c1ccc(CNc2cccc3c(-c4ccc5[nH]nc(-c6nc7ccccc7[nH]6)c5c4)cncc23)cc1 [Example 57] | – | – | 0.037 µM | 0.65 µM | – | 2 µM | 5 µM |
| Cc1c(CNC(C)C)cncc1-c1ccc2[nH]nc(-c3nc4ccccc4[nH]3)c2c1 [Example 78, {5-[3-(1H-Benzoimidazol-2-yl)-1H-indazol-5-yl]-4-methyl-pyridin-3-ylmethyl}-isopropyl-amine] | – | – | 0.0007 µM | 0.0055 µM | – | 0.085 µM | 0.22 µM |
| CC(C)(C)NCc1cccc2[nH]c(-c3n[nH]c4ccc(-c5cncc6ccccc56)cc34)nc12 [Example 39, tert-Butyl-[2-(5-isoquinolin-4-yl-1H-indazol-3-yl)-1H-benzoimidazol-4-ylmethyl]-amine] | 0.018 µM | 0.06 µM | 0.0011 µM | 0.009 µM | – | – | – |
| CC(=O)N1CCCc2c(-c3ccc4[nH]nc(-c5nc6ccccc6[nH]5)c4c3)cncc21 [Example 63, 1-{5-[3-(1H-Benzoimidazol-2yl)-1H-indazol-5-yl]-3,4-dihydro-2H-[1,7]naphthyridin-1-yl}-ethanone] | 0.43 µM | 1.3 µM | 0.0012 µM | 0.22 µM | – | – | – |
| C(=C\c1n[nH]c2ccc(-c3ccnc4ccccc34)cc12)/c1ccccc1 [Example 17, 4-[3-((E)-Styryl)-1H-indazol-5-yl]-quinoline] | 3.2 µM | 5 µM | 1.4 µM | – | 42.6% | – | – |
| Cc1nc(-c2n[nH]c3ccc(-c4cncc5ccccc45)cc23)[nH]c1-c1ccccc1 [Example 67, 4-[3-(4-Methyl-5-phenyl-1H-imidazol-2-yl)-1H-indazol-5-yl]-isoquinoline] | – | – | 0.016 µM | 0.22 µM | – | 2 µM | 4.7 µM |

Continued, in another order:

| IC50 [1, 5] | IC90 [1, 6] | Ki [2] | Ki [3] | inhibition at 1 µM [4] | SMILES | IC50 [1, 7] | IC90 [1, 8] |
| --- | --- | --- | --- | --- | --- | --- | --- |
| > 0.5 µM | > 0.5 µM | 0.0014 µM | 0.0035 µM | – | Cc1c(CNCc2ccccc2)cncc1-c1ccc2[nH]nc(-c3nc4ccccc4[nH]3)c2c1 [Example 88, {5-[3-(1H-Benzoimidazol-2-yl)-1H-indazol-5-yl]-4-methyl-pyridin-3-ylmethyl}-benzyl-amine] | – | – |
| 1 µM | 2.4 µM | 0.0037 µM | 0.05 µM | – | Cc1c(-c2ccc3[nH]nc(-c4nc5ccccc5[nH]4)c3c2)cncc1-c1ccccn1 [Example 62] | – | – |
| 0.16 µM | 0.42 µM | 0.0019 µM | 0.0042 µM | – | Cc1c(CNCC(C)C)cncc1-c1ccc2[nH]nc(-c3nc4ccccc4[nH]3)c2c1 [Example 87, {5-[3-(1H-Benzoimidazol-2-yl)-1H-indazol-5-yl]-4-methyl-pyridin-3-ylmethyl}-isobutyl-amine] | – | – |
| 0.48 µM | 1.3 µM | 0.001 µM | 0.036 µM | – | CC(=O)Nc1cccc2c(-c3ccc4[nH]nc(-c5nc6ccccc6[nH]5)c4c3)cncc12 [Example 56, N-{4-[3-(1H-Benzoimidazol-2-yl)1H-indazol-5-yl]-isoquinolin-8-yl}-acetamide] | – | – |
| 0.15 µM | 0.25 µM | 0.00094 µM | 0.001 µM | – | Cc1c(CNCCO)cncc1-c1ccc2[nH]nc(-c3nc4ccccc4[nH]3)c2c1 [Example 89, 2-({5-[3-(1H-Benzoimidazol-2-yl)-1H-indazol-5-yl]-4-methyl-pyridin-3-ylmethyl}-amino)-ethanol] | – | – |
| 0.32 µM | > 0.5 µM | 0.00061 µM | 0.0019 µM | – | Cc1c(CNc2cccnc2)cncc1-c1ccc2[nH]nc(-c3nc4ccccc4[nH]3)c2c1 [Example 93, {5-[3-(1H-Benzoimidazol-2-yl)-1H-indazol-5-yl]-4-methyl-pyridin-3-ylmethyl}-pyridin-3-yl-amine] | – | – |
| 0.4 µM | 1.3 µM | 0.0014 µM | 0.0098 µM | – | Cc1cncc(-c2ccc3[nH]nc(-c4nc5ccccc5[nH]4)c3c2)c1C [Example 75] | – | – |
| 1.3 µM | 5 µM | 0.014 µM | 0.19 µM | – | Cc1c(C(N)=O)cncc1-c1ccc2[nH]nc(-c3nc4ccccc4[nH]3)c2c1 [Example 64, 5-[3-(1H-Benzoimidazol-2-yl)-1H-indazol-5-yl]-4-methyl-nicotinamide] | – | – |
